According to patent US6667303B1, “Aryl substituted 1,4-diazepanes and method of use thereof” (Wyeth, priority 2001, dated 2003):

Each molecule was assayed against T1, human 5-hydroxytryptamine2C (h5HT2C) receptor (Homo sapiens, UniProt P28335) (assay: 5HT2C receptor binding assay ([125I] DOI displacement)). Details: not given.
T1 construct: expressed in transfected cells; host or cells: CHO (Chinese Hamster Ovary) cells; membrane preparation
T1 sequence (P28335 33-458): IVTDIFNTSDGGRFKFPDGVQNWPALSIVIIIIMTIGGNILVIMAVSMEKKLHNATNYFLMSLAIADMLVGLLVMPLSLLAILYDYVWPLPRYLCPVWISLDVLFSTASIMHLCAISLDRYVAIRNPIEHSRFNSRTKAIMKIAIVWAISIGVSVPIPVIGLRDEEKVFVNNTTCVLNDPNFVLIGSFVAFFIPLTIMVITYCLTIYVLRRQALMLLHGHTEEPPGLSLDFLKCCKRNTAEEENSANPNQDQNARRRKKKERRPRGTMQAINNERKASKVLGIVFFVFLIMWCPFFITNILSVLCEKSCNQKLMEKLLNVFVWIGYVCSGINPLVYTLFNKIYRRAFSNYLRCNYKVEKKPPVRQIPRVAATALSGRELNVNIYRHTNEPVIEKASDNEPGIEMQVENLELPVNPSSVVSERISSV
Experimental: To determine for compounds of Formula (I) the affinity for the 5HT2C receptor, the following 5HT2C receptor binding assay was performed. A CHO (Chinese Hamster Ovary) cell line transfected with the cDNA expressing the human 5-hydroxytryptamine2C (h5HT2C) receptor was maintained in DMEM (Dulbecco's Modified Eagle Media) supplied with fetal calf serum, glutamine, and the markers: guaninephosphoribosyl transferase (GTP) and hypoxanthinethymidine (HT). The cells were allowed to grow to confluence in large culture dishes with intermediate changes of media and splitting. Upon reaching confluence, the cells were harvested by scraping. The harvested cells were suspended in half volume of fresh physiological phosphate buffered saline (PBS) solution and centrifuged at low speed (900×g). This operation was repeated once more. The collected cells were then homogenized with a polytron at setting #7 for 15 sec in ten volumes of 50 mM Tris.HCl, pH 7.4 and 0.5 mM EDTA. The homogenate was centrifuged at 900×g for 15 min to remove nuclear particles and other cell debris. The pellet was discarded and the supernatant fluid recentrifuged at 40,000×g for 30 min. The resulting pellet was resuspended in a small volume of Tris.HCl buffer and the tissue protein content was determined in aliquots of 10-25 microliter (μl) volumes. Bovine Serum Albumin (BSA) was used as the standard in the protein determination by the method of Lowry et al., (J. Biol. Chem., 193:265 (1951)). The volume of the suspended cell membranes was adjusted with 50 mM Tris.HCl buffer containing: 0.1% ascorbic acid, 10 mM pargyline and 4 mM CaCl2 to give a tissue protein concentration of 1-2 mg per ml of suspension. The preparation membrane suspension (many times concentrated) was aliquoted in 1 ml volumes and stored at −70° C. until used in subsequent binding experiments.
Binding experiments were performed in a 96 well microtiter plate format, in a total volume of 200 μl. To each well was added: 60 μl of incubation buffer made in 50 mM Tris.HCl buffer, pH 7.4 and containing 4 mM CaCl2; 20 μl of […] DOI [1-(4-iodo-2,5-dimethoxyphenyl)-2-aminopropane] (S.A., 2200 Ci/mmol, NEN Life Science).
DOI. The reaction was initiated by the final addition of 100.0 μl of tissue suspension containing 50 μg of receptor protein. Nonspecific binding was measured in the presence of 1 μM unlabeled DOI added in 20.0 μl volume. Test compounds are added in […]. The mixture was incubated at room temperature for 60 min. The incubation was stopped by rapid filtration. The bound ligand-receptor complex was filtered off on a 96 well unifilter with a Packard® Filtermate 196 Harvester. The bound complex caught on the filter disk was dried in a vacuum oven heated to 60° C. and the radioactivity measured by liquid scintillation with 40 μl Microscint-20 scintillant in a Packard TopCount® equipped with six (6) photomultiplier detectors.
Description of this method can be found in Sanders-Bush, E. et al., Putative selective 5-HT2C antagonists block serotonin 5-HT1C receptors in the choroid plexus, J. Pharmacol. Exper. Ther., 247: 169-173 (1988), and Akiyoshi, J., et al., Effects of antidepressants on intracellular calcium mobilization in CHO cells transfected with the human 5-HT2C receptors, Biol. Psychiatry, 39:1000-1008 (1996).
Specific binding is defined as the total radioactivity bound less the amount bound in the presence of 1 μM unlabeled DOI. Binding in the presence of varying concentrations of test drugs was expressed as percent of specific binding in the absence of drug. […] Alternatively, a linear regression line of decline of data points was plotted, from which the IC50 value was read off the curve and the Ki value determined by solving the following equation: [formula]

Compound | Ki [µM]
COc1cc(CC(C)N)c(OC)cc1I (stereo not shown) [DOI, 1-(4-iodo-2,5-dimethoxyphenyl)-2-aminopropane, reference compound] | 0.0195
C=CCN1CCCN(c2ccc3c4c(cccc24)C(=O)N3CC2CCC2)CC1 [Example 22, 6-(4-allyl-1,4-diazepan-1-yl)-1-(cyclobutylmethyl)benzo[cd]indol-2(1H)-one] | 0.241
CCCCCN1CCCN(c2ccc3c4c(cccc24)C(=O)N3CCCC(F)(F)F)CC1 [Example 80, 6-(4-pentyl-1,4-diazepan-1-yl)-1-(4,4,4-trifluorobutyl)benzo[cd]indol-2(1H)-one] | 0.19
CC(C)CN1CCCN(c2ccc3c4c(cccc24)C(=O)N3CC2CCC2)CC1 [Example 24, 1-(cyclobutylmethyl)-6-(4-isobutyl-1,4-diazepan-1-yl)benzo[cd]indol-2(1H)-one] | 0.26
O=C1c2cccc3c(N4CCCN(CC5CCC5)CC4)ccc(c23)N1CC1CCC1 [Example 32, 1-(cyclobutylmethyl)-6-[4-(cyclobutylmethyl)-1,4-diazepan-1-yl]benzo[cd]indol-2(1H)-one] | 0.256

Same assay, conditions: membranes of CHO cells expressing h5HT2C; radioligand [125I] DOI; room temperature, 60 min; read-out: 5HT2C Binding Affinity Ki

Compound | Ki [µM]
CCCN1CCCN(c2ccc3c4c(cccc24)C(=O)N3Cc2ccc(OC)cc2)CC1 [Example 88, 1-(4-methoxybenzyl)-6-(4-propyl-1,4-diazepan-1-yl)benzo[cd]indol-2(1H)-one] | 0.243
O=C1c2cccc3c(N4CCCN(CCc5ccccc5)CC4)ccc(c23)N1CCCC(F)(F)F [Example 85, 6-[4-(2-phenylethyl)-1,4-diazepan-1-yl]-1-(4,4,4-trifluorobutyl)benzo[cd]indo-2(1H)-one] | 0.112
O=C1c2cccc3c(N4CCCN(CCc5ccccc5)CC4)ccc(c23)N1CC1CCC1 [Example 28, 1-(cyclobutylmethyl)-6-[4-(2-phenylethyl)-1,4-diazepan-1-yl]benzo[cd]indol-2(1H)-one] | 0.178
COc1ccc(CN2C(=O)c3cccc4c(N5CCCN(CC6CCC6)CC5)ccc2c34)cc1 [Example 13, 6-[4-(cyclobutylmethyl)-1,4-diazepan-1-yl]-1-(4-methoxybenzyl)benzo[cd]indol-2(1H)-one] | 0.257
CCCCCN1CCCN(c2ccc3c4c(cccc24)C(=O)N3CC)CC1 [Example 44, 1-ethyl-6-(4-pentyl-1,4-diazepan-1-yl)benzo[cd]indol-2(1H)-one] | 0.247
COc1ccc(CN2C(=O)c3cccc4c(N5CCCN(CC(C)(C)C)CC5)ccc2c34)cc1 [Example 5, 1-(4-methoxybenzyl)-6-(4-neopentyl-1,4-diazepan-1-yl)benzo[cd]indol-2(1H)-one] | 0.132
COc1ccc(CN2C(=O)c3cccc4c(N5CCCN(CCCc6ccccc6)CC5)ccc2c34)cc1 [Example 11] | 0.165

These molecules were tested against T2, human serotonin 5HT2C receptor (Homo sapiens, UniProt P28335) (assay: saturation binding with increasing concentrations of [125I] DOI). Details: not given.
T2 construct: expressed in transfected cells; host or cells: CHO (Chinese Hamster Ovary) cells; membrane preparation
T2 sequence (P28335 33-458): T1 sequence (P28335 33-458)
Experimental: To determine for compounds of Formula (I) the affinity for the 5HT2C receptor, the following 5HT2C receptor binding assay was performed. A CHO (Chinese Hamster Ovary) cell line transfected with the cDNA expressing the human 5-hydroxytryptamine2C (h5HT2C) receptor was maintained in DMEM (Dulbecco's Modified Eagle Media) supplied with fetal calf serum, glutamine, and the markers: guaninephosphoribosyl transferase (GTP) and hypoxanthinethymidine (HT). The cells were allowed to grow to confluence in large culture dishes with intermediate changes of media and splitting. Upon reaching confluence, the cells were harvested by scraping. The harvested cells were suspended in half volume of fresh physiological phosphate buffered saline (PBS) solution and centrifuged at low speed (900×g). This operation was repeated once more. […] The resulting pellet was resuspended in a small volume of Tris.HCl buffer and the tissue protein content was determined in aliquots of 10-25 microliter (μl) volumes. […]
The dissociation constant, KD of [^125I] […] Nonspecific binding was measured in the presence of 1 μM unlabeled DOI added in 20.0 μl volume. […] The bound complex caught on the filter disk was dried in a vacuum oven heated to 60° C. and the radioactivity measured by liquid scintillation with 40 μl Microscint-20 scintillant in a Packard TopCount® equipped with six (6) photomultiplier detectors.

Compound | Kd [µM]
COc1cc(CC(C)N)c(OC)cc1I (stereo not shown) [[^125I] DOI, 1-(4-iodo-2,5-dimethoxyphenyl)-2-aminopropane] | 0.0004
